Test results reported in patent publication US11872217B2, “Indanes as PD-L1 inhibitors” (CHEMOCENTRYX, INC., priority 2019, dated 2024).

target: human PD-L1 / Human PD-1 (Homo sapiens (Human), UniProt Q9NZQ7); assay: Enzyme-Linked Immunosorbent Assay (ELISA), PD-1/PD-L1 binding; settings: plates coated with human PD-L1; biotinylated human PD-1; absorbance at 450 nm
Procedure: 96 Well plates were coated with 1 μg/mL of human PD-L1 (obtained from R&D) in PBS overnight at 4° C. The wells were then blocked with 2% BSA in PBS (W/V) with 0.05% TWEEN-20 for 1 hour at 37° C. The plates were washed 3 times with PBS/0.05% TWEEN-20 and the compounds were serial diluted (1:5) in dilution medium and added to the ELISA plates. Human PD-1 and biotin 0.3 μg/mL (ACRO Biosystems) were added and incubated for 1 hour at 37° C. then washed 3 times with PBS/0.05% TWEEN-20. A second block was performed with 2% BSA in PBS (W/V)/0.05% TWEEN-20 for 10 min at 37° C. and the plates were washed 3 times with PBS/0.05% TWEEN-20. Streptavidin-HRP was added for 1 hour at 37° C. then the plates were washed 3 times with PBS/0.05% TWEEN-20. TMB substrate was added and reacted for 20 min at 37° C. A stop solution (2 N aqueous H2SO4) was added. The absorbance was read at 450 nm using a micro-plate spectrophotometer. The results are shown in Table 1: IC50 values are provided as follows: from 100 up to 10,000 nM (+); less than 100 nM (++).

Sequence of human PD-L1 / Human PD-1 (Q9NZQ7 19-239): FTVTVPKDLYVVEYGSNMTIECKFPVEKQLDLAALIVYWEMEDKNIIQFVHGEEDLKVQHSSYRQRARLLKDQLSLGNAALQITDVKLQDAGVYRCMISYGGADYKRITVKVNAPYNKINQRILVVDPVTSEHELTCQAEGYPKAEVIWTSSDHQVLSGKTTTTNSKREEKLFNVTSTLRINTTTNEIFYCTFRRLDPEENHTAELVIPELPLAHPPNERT

SMILES	IC50 [nM]
CCOc1cc(O[C@H]2CCc3c(-c4cccc(COc5cc(COC)c(CN6CCC(OC(=O)[C@@H](N)C(C)C)CC6)cc5Cl)c4C)cccc32)c(Cl)cc1CN1CCC(OC(=O)[C@@H](N)C(C)C)CC1 [Compound 1.001]	100 to 10000
CCOc1cc(O[C@H]2CCc3c(-c4cccc5c4CC[C@@H]5Oc4cc(OCC)c(CN)cc4Cl)cccc32)c(Cl)cc1CN [Compound 1.003]	100 to 10000
CCOc1cc(O[C@H]2CCc3c(-c4cccc(COc5cc(COC)c(CN6CCC(OC(=O)C(C)C)CC6)cc5Cl)c4C)cccc32)c(Cl)cc1CN1CCC(OC(=O)C(C)C)CC1 [Compound 1.005]	100 to 10000
Cc1c(COc2ccc(CN[C@@](C)(CO)C(=O)O)cc2F)cccc1-c1cccc2c1CCC2Oc1ccc(CN[C@@](C)(CO)C(=O)O)cc1F (stereo partly shown) [Compound 1.010]	100 to 10000
COc1cc(CN[C@@](C)(CO)C(=O)O)ccc1OCc1cccc(-c2cccc3c2CCC3Oc2ccc(CN[C@@](C)(CO)C(=O)O)cc2OC)c1C (stereo partly shown) [Compound 1.011]	100 to 10000
CCOc1cc(O[C@H]2CCc3c(-c4cccc(COc5cc(COC)c(CN(C)CCCC(=O)O)cc5Cl)c4C)cccc32)c(Cl)cc1CN(C)CCCC(=O)O [Compound 1.012]	< 100
CCOc1cc(O[C@H]2CCc3c(-c4cccc5c4CC[C@@H]5Oc4cc(OCC)c(CN[C@@](C)(CO)C(=O)O)cc4Cl)cccc32)c(Cl)cc1CN[C@@H]1CCC[C@@H]1O [Compound 1.013]	< 100
CCOc1cc(O[C@H]2CCc3c(-c4cccc5c4CC[C@@H]5Oc4cc(OCC)c(CN[C@@H](CO)C(N)=O)cc4Cl)cccc32)c(Cl)cc1CN[C@@H](CO)C(N)=O [Compound 1.014]	< 100
CCOc1cc(NC2CCc3c(-c4cccc(COc5cc(OCC)c(CN(C)CCCC(=O)O)cc5Cl)c4C)cccc32)c(Cl)cc1CN(C)CCCC(=O)O (stereo not shown) [Compound 1.015]	< 100
CCOc1cc(NC2CCc3c(-c4cccc(COc5cc(OCC)c(CN(C)CCCC(=O)OC)cc5Cl)c4C)cccc32)c(Cl)cc1CN(C)CCCC(=O)OC (stereo not shown) [Compound 1.016]	100 to 10000
N#Cc1cncc(COc2cc(O[C@H]3CCc4c(-c5cccc6c5CC[C@@H]6Oc5cc(OCc6cncc(C#N)c6)c(CNCC(=O)O)cc5Cl)cccc43)c(Cl)cc2CNCC(=O)O)c1 [Compound 1.017]	< 100
CCOc1cc(O[C@H]2CCc3c(-c4cccc5c4CC[C@@H]5Oc4cc(OCC)c(CN[C@H](CO)C(=O)O)cc4Cl)cccc32)c(Cl)cc1CN[C@H](CO)C(=O)O [Compound 1.018]	< 100
CCOc1cc(O[C@H]2CCc3c(-c4cccc5c4CC[C@@H]5Oc4cc(OCC)c(CN(C)[C@@](C)(CO)C(=O)O)cc4Cl)cccc32)c(Cl)cc1CN(C)[C@@](C)(CO)C(=O)O [Compound 1.019]	< 100

Further lines, results first:

IC50 [nM]	SMILES
< 100	CCOc1cc(O[C@@H]2c3cccc(-c4cccc(COc5cc(COC)c(CN[C@@](C)(CO)C(=O)O)cc5Cl)c4C)c3C[C@@H]2F)c(Cl)cc1CN[C@@](C)(CO)C(=O)O (mixture of isomers) [Compound 1.020]
< 100	CCOc1cc(O[C@H]2CCc3c(-c4cccc5c4CC[C@@H]5Oc4cc(OCC)c(CN(C)[C@@H](CO)C(=O)O)cc4Cl)cccc32)c(Cl)cc1CN(C)[C@@H](CO)C(=O)O [Compound 1.002]
< 100	CCOc1cc(OCc2cccc(-c3cccc4c3CC[C@@H]4Oc3cc(OCC)c(CNCCS(=O)(=O)O)cc3Cl)c2C)c(Cl)cc1CNCCS(=O)(=O)O [Compound 1.004]
< 100	CCOc1cc(O[C@H]2CCc3c(-c4cccc5c4CC[C@@H]5Oc4cc(OCC)c(CN(C)[C@@](C)(CO)C(=O)O)cc4Cl)cccc32)c(Cl)cc1CN(C)C[C@@H]1CCC(=O)N1 [Compound 1.006]
< 100	Cc1cc(CN[C@@](C)(CO)C(=O)O)ccc1OCc1cccc(-c2cccc3c2CCC3Oc2ccc(CN[C@@](C)(CO)C(=O)O)cc2C)c1C (stereo partly shown) [Compound 1.008]
< 100	CCOc1cc(O[C@H]2CCc3c(-c4cccc5c4CC[C@@H]5Oc4cc(OCC)c(CN[C@H]5CCC(=O)NC5)cc4Cl)cccc32)c(Cl)cc1CN[C@H]1CCC(=O)NC1 [Compound 1.009]
